The text below walks through data of US5674876A, “.rho.-heteroatom-substituted phenols and uses thereof” (Research Development Foundation, priority 1995, dated 1997).

Holding throughout (type): cell-based
What all share (parameters): key to Inhibition (%) of DNA synthesis: TOXIC (viability): TOXIC: the compound at this concentration killed the cells or greatly lowered their viability

Series [1] has as its system HL-60 (Human Promyelocytic Leukemia Cell Line). The experiment in a line: Inhibition of DNA synthesis (3H-TdR uptake) / proliferation, HL-60. Particulars: for inhibition at 0.1 µg/mL / inhibition at 1 µg/mL / inhibition at 5 µg/mL / inhibition at 10 µg/mL / inhibition at 20 µg/mL: Homo sapiens; for inhibition at 0.1 µg/mL: HL-60, 0.1 μg/mL; for inhibition at 1 µg/mL: HL-60, 1 μg/mL. The procedure:
(§1) Cells were cultured in the following media: 1) MDA MB 435 cells were cultured in Minimum Essential Media (MEM-HyClone, Logan, Utah) supplemented with 5% heat inactivated fetal bovine serum (HyClone), 2 mM glutamine (Sigma, St. Louis, Mo.), 1 mM sodium pyruvate (Sigma), 1X MEM Non-Essential Amino Acids (Sigma), 2X MEM Vitamins (Sigma), and 100 IU/mL penicillin/100 μg/mL streptomycin (HyClone); 2) MCF-7 McGuire cells were cultured in Minimum Essential Media (MEM-HyClone, Logan, Utah) supplemented with 5% heat inactivated fetal bovine serum (HyClone), 2 mM glutamine (Sigma, St. Louis, Mo.), and 100 IU/mL penicillin/100 μg/mL streptomycin (HyClone); 3) HL-60 cells were cultured in Iscoves Modified Dulbecco's Media (IMDM-HyClone, Logan, Utah) supplemented with 5% heat inactivated fetal bovine serum (HyClone), 2 mM glutamine (Sigma, St. Louis, Mo.), 1 mM sodium pyruvate (Sigma), 1X MEM Non-Essential Amino Acids (Sigma), 2X MEM Vitamins (Sigma), and 100 IU/mL penicillin/100 μg/mL streptomycin (HyClone); 2) MCF-7 McGuire cells were cultured in Minimum Essential Media (MEM-HyClone, Logan, Utah) supplemented with 5% heat inactivated fetal bovine serum (HyClone), 2 mM glutamine (Sigma, St. Louis, Mo.), and 100 IU/mL penicillin/100 μg/mL streptomycin (HyClone); 3) HL-60 cells were cultured in Iscoves Modified Dulbecco's Media (IMDM-HyClone, Logan, Utah) supplemented with 5% heat inactivated fetal bovine serum (HyClone), 2 mM glutamine (Sigma, St. Louis, Mo.), and 100 IU/mL penicillin/100 μg/mL streptomycin (HyClone).
(§2) All compounds were handled as if they were light sensitive. All compounds were initially dissolved in absolute ethanol and subsequently diluted to a final concentration of 0.5% ethanol with the appropriate medium.
(§3) For the bioassay, all cells were used at 2.5×10^5 /mL. Cells were treated with each of the compounds at concentrations of 20, 10, 5, 1, 0.1, and 0.01 μg/mL , and 200 μl of each treatment group were plated in quadruplicate in a 96 well culture plate (Corning, Corning N.Y.). Plates were done in duplicate, one plate to be used for viability testing and the other plate to examine ^3 H-TdR uptake (DNA synthesis).
(§4) Plates were cultured for 48 hours at 37° C., 5% CO2. Eight hours prior to the end of incubation, ^3 H-TdR was added to one of the duplicate plates and incubation continued for 8 hours. The cells were then harvested (trypsinization was required to harvest MDA MB 435 and MCF-7 McGuire). At the end of the incubation, the cells were removed from the wells (of the duplicate plate--no radioisotope added) and viability checked by the Trypan Blue Exclusion method. Percent viability and percent suppression of each treatment group were calculated.
(§5) With respect to the data shown in the Tables below, the data is arranged from greatest percent inhibition of DNA synthesis to lowest. […] "NT" refers to "Not Tested". The cells were cultured for 48 hours, pulsed 8 hours with tritiated thymidine, harvested and counted. MDA MB 435 is the abbreviation for the Metastic Human Breast Cancer Cell Line. MCF-7 McGuire is the abbreviation for the Estrogen Responsive Human Breast Cancer Cell Line and HL-60 is the Human Promyelocytic Leukemia Cell Line.

For series [2], the system named is MCF-7 McGuire (Estrogen Responsive Human Breast Cancer Cell Line). The experiment in a line: Inhibition of DNA synthesis (3H-TdR uptake) / proliferation, MCF-7. The following applies: for inhibition at 0.1 µg/mL / inhibition at 1 µg/mL / inhibition at 5 µg/mL / inhibition at 10 µg/mL / inhibition at 20 µg/mL: Homo sapiens, MCF7; for inhibition at 0.1 µg/mL: MCF-7, 0.1 μg/mL; for inhibition at 1 µg/mL: MCF-7, 1 μg/mL. The method, then: as §1, §2, §3, §4, §5

Series [3] has as its system MDA MB 435 (Metastic Human Breast Cancer Cell Line). The experiment in a line: Inhibition of DNA synthesis (3H-TdR uptake) / proliferation, MB-435. Particulars: for inhibition at 0.1 µg/mL / inhibition at 1 µg/mL / inhibition at 5 µg/mL / inhibition at 10 µg/mL / inhibition at 20 µg/mL: Homo sapiens, MDA-MB-435; for inhibition at 0.1 µg/mL: MB-435, 0.1 μg/mL; for inhibition at 0.1 µg/mL / inhibition at 1 µg/mL / inhibition at 5 µg/mL / Inhibition (%) of DNA synthesis: TOXIC (viability) / inhibition at 10 µg/mL / inhibition at 20 µg/mL: 48 h; for inhibition at 1 µg/mL: MB-435, 1 μg/mL. The procedure:
as §1, §2, §3, §4, §5

A word on the inhibition: it is the percentage by which the read-out fell short of the control. In the case of `CC(=O)Oc1c(C)c2c3c(c1C)CCCN3CCC2` [Compound 6, 9-Acetoxy-8,10-dimethyljulolidine], the “inhibition of proliferation (in words)” value in series [1] (HL-60, 10 μg/mL) is listed as “significantly inhibited the proliferation”; in series [2] (MCF-7, 10 μg/mL), “significantly inhibited the proliferation”; in series [2] (MCF-7, 10-20 μg/mL), “significantly inhibited the proliferation”; in series [3] (MB-435, 5 μg/mL), “significantly inhibited the proliferation”; in series [3] (MB-435, 10-20 μg/mL) it was “significantly inhibited the proliferation”. For the same compound, the “Inhibition (%) of DNA synthesis: TOXIC (viability)” value in series [1] (HL-60, 20 μg/mL, 48 h) was “TOXIC”; in series [2] (MCF-7, 20 μg/mL, 48 h) it was “TOXIC”; in series [3] (MB-435, 10 μg/mL), “TOXIC”; in series [3] (MB-435, 20 μg/mL), “TOXIC”. The “effect on HL-60 cells (in words)” value in series [1] (HL-60, no dose stated) is recorded as “virtually no effect”. For the same compound, the results for the inhibition at 0.1 µg/mL in series [1] (48 h), in series [2] (48 h) and in series [3] were 3%, 0% and 3%, respectively. The inhibition at 1 µg/mL stood at 24% in series [1] (48 h), 10% in series [2] (48 h) and 0% in series [3]. Besides, the inhibition at 5 µg/mL was 59% in series [1] (HL-60, 5 μg/mL, 48 h); 13% in series [2] (MCF-7, 5 μg/mL, 48 h); 80% in series [3] (MB-435, 5 μg/mL). In addition, the inhibition at 10 µg/mL in series [1] (HL-60, 10 μg/mL, 48 h) came to 89%; in series [2] (MCF-7, 10 μg/mL, 48 h) it was 37%.

With `CC(=O)Oc1c(C)cc2c(c1C)C(C)CN2C(=O)C(C)C` (centres unmarked) [Compound 12b, N-Isobutyryl-5-acetoxy-3,4,6-trimethylindoline], the “inhibition of proliferation (in words)” value in series [1] (HL-60, 5-20 μg/mL) is “significantly inhibited the proliferation”; in series [2] (MCF-7, 5-20 μg/mL), “significantly inhibited the proliferation”; in series [3] (MB-435, 5-20 μg/mL) it was “significantly inhibited the proliferation”. The inhibition at 0.1 µg/mL in series [1] (48 h) is 0%; in series [2] (48 h) it was 20%; in series [3], 1%. Besides, the inhibition at 1 µg/mL in series [1] (48 h) was found to be 2%; in series [2] (48 h) it was 47%; in series [3], 19%. The inhibition at 5 µg/mL came to 32% in series [1] (HL-60, 5 μg/mL, 48 h); 38% in series [2] (MCF-7, 5 μg/mL, 48 h); 32% in series [3] (MB-435, 5 μg/mL). The inhibition at 10 µg/mL in series [1] (HL-60, 10 μg/mL, 48 h) came to 67%; in series [2] (MCF-7, 10 μg/mL, 48 h), 58%; in series [3] (MB-435, 10 μg/mL) it was 24%. Moreover, the inhibition at 20 µg/mL amounted to 46% in series [1] (HL-60, 20 μg/mL, 48 h); 70% in series [2] (MCF-7, 20 μg/mL, 48 h); 41% in series [3] (MB-435, 20 μg/mL).

In the case of `Cc1c(C)c2c(c(C)c1O)CC1(CC1)O2` [Compound 32], the “inhibition of proliferation (in words)” value was “significantly inhibited the proliferation” in series [1] (HL-60, 10-20 μg/mL); “significantly inhibited the proliferation” in series [2] (MCF-7, 10-20 μg/mL); “significantly inhibited the proliferation” in series [3] (MB-435, 10-20 μg/mL). Also, the inhibition at 0.1 µg/mL in series [1] (48 h) is 11%; in series [2] (48 h) it was 0%; in series [3], 6%. Also, the inhibition at 1 µg/mL in series [1] (48 h) was found to be 5%; in series [2] (48 h), 10%; in series [3], 6%. Besides, the inhibition at 5 µg/mL in series [1] (HL-60, 5 μg/mL, 48 h) worked out at 12%; in series [2] (MCF-7, 5 μg/mL, 48 h), 5%; in series [3] (MB-435, 5 μg/mL) it was 15%. The inhibition at 10 µg/mL in series [1] (HL-60, 10 μg/mL, 48 h) amounted to 17%; in series [2] (MCF-7, 10 μg/mL, 48 h) it was 18%; in series [3] (MB-435, 10 μg/mL) it was 30%. In addition, the inhibition at 20 µg/mL in series [1] (HL-60, 20 μg/mL, 48 h) was 26%; in series [2] (MCF-7, 20 μg/mL, 48 h), 22%; in series [3] (MB-435, 20 μg/mL) it was 43%.

In the case of `CC(=O)N1CC(C)(C)c2c(C)c(O)c(C)c(C)c21` [Compound 31b], the “inhibition of proliferation (in words)” value was “significantly inhibited the proliferation” in series [1] (HL-60, 10-20 μg/mL); “significantly inhibited the proliferation” in series [2] (MCF-7, 10-20 μg/mL); “significantly inhibited the proliferation” in series [3] (MB-435, 10-20 μg/mL). Moreover, the inhibition at 0.1 µg/mL in series [1] (48 h), in series [2] (48 h) and in series [3] was 0% throughout. The inhibition at 1 µg/mL in series [1] (48 h), in series [2] (48 h) and in series [3] was 0% each time. Besides, the inhibition at 5 µg/mL came to 6% in series [1] (HL-60, 5 μg/mL, 48 h); 29% in series [2] (MCF-7, 5 μg/mL, 48 h); 0% in series [3] (MB-435, 5 μg/mL). For the same compound, the inhibition at 10 µg/mL in series [1] (HL-60, 10 μg/mL, 48 h) was found to be 15%; in series [2] (MCF-7, 10 μg/mL, 48 h) it was 18%; in series [3] (MB-435, 10 μg/mL), 15%. Also, the inhibition at 20 µg/mL in series [1] (HL-60, 20 μg/mL, 48 h) worked out at 28%; in series [2] (MCF-7, 20 μg/mL, 48 h), 22%; in series [3] (MB-435, 20 μg/mL), 33%.

Turning to `Cc1c(O)c(C)c2c(C)cn(C(=O)C(C)(C)C)c2c1C` [Compound 27, N-Pivaloyl-5-hydroxy-3,4,6,7-tetramethylindole], the “inhibition of proliferation (in words)” value in series [1] (HL-60, 5 μg/mL) is “significantly inhibited the proliferation”; in series [2] (MCF-7, 5 μg/mL), “significantly inhibited the proliferation”; in series [3] (MB-435, 5 μg/mL), “significantly inhibited the proliferation”. The inhibition at 0.1 µg/mL in series [1] (48 h) came out at 0%; in series [2] (48 h), 0%; in series [3], 4%. The inhibition at 1 µg/mL was determined as 12% in series [1] (48 h), 14% in series [2] (48 h) and 15% in series [3]. The inhibition at 5 µg/mL is 61% in series [1] (HL-60, 5 μg/mL, 48 h); 57% in series [2] (MCF-7, 5 μg/mL, 48 h); 54% in series [3] (MB-435, 5 μg/mL). Besides, the inhibition at 10 µg/mL was determined as 91% in series [1] (HL-60, 10 μg/mL, 48 h); 86% in series [2] (MCF-7, 10 μg/mL, 48 h); 91% in series [3] (MB-435, 10 μg/mL). Besides, the inhibition at 20 µg/mL in series [1] (HL-60, 20 μg/mL, 48 h) was 97%; in series [3] (MB-435, 20 μg/mL) it was 97%.
